What is called ED50 is the dose that gives a 50% effect, or the effect in half of the subjects. A word on the TD50: it is the 50% point of the dose-response relation for the toxic effect studied. For orientation: IC50 means the concentration at which inhibition is half-maximal. Lower therefore signals greater potency in that assay.

This note sets out measurements from ChEMBL document CHEMBL3774365, “Design, synthesis, pharmacological evaluation, and docking study of new acridone-based 1,2,4-oxadiazoles as potential anticonvulsant agents” (Eur J Med Chem, 2016).

The source made the active and inactive calls. The calls are words filed in the database; no cut-off is given here. Where only a bound is given, the exact number is not on record here.

For data set [1], the system named is Mus musculus. Briefly: Anticonvulsant activity against pentylenetetrazole-induced seizures in ip dosed mouse incubated for 30 mins prior to pentylenetetrazole challenge measured after 30 mins. It counts as functional.
Data set [2] deals with Mus musculus. The data set can be described thus: Anticonvulsant activity against maximal electroshock-induced seizures in ip dosed mouse assessed as protection against hind limb tonic extension incubated for 30 mins prior to 60 Hz maximal electroshock challenge measured for 30 s. It counts as functional. The conditions noted are these: Hindlimb. For orientation: Protection in the maximal electroshock model is a classic sign of anticonvulsant action.

Data set [3] can be described thus: Neurotoxicity in ip dosed mouse assessed as minimal motor impairment measured for 1 min by rotarod test. It counts as toxicity, organism-based. The conditions noted are these: in vivo.
A short description of data set [4]: Protective index, ratio of TD50 for ip dosed mouse neurotoxicity to ED50 for protection against PTZ-induced seizure in ip dosed mouse. The data set is classed as toxicity, organism-based. The conditions noted are these: in vivo, read-out: Ratio TD50/ED50.
Data set [5] can be described thus: Protective index, ratio of TD50 for ip dosed mouse neurotoxicity to ED50 for protection against 60 Hz electroshock-induced seizure in ip dosed mouse. The conditions noted are these: in vivo, read-out: Ratio TD50/ED50. The data set is classed as toxicity, organism-based.
A further data set relates to MCF7. Briefly: Cytotoxicity against human MCF7 cells after 48 hrs by MTT assay. The data set is classed as cell-based. The conditions noted are these: MCF7, 48 h. A general note: Tetrazolium dyes change colour on reduction, which living cells bring about.
The next data set deals with T47D. Briefly: Cytotoxicity against human T47D cells after 48 hrs by MTT assay. The data set is classed as cell-based.
A further data set deals with MDA-MB-231. Briefly: Cytotoxicity against human MDA-MB-231 cells after 48 hrs by MTT assay. It counts as cell-based. The conditions noted are these: MDA-MB-231, 48 h.
Data set [6] concerns Mus musculus. The data set can be described thus: Anticonvulsant activity against pentylenetetrazole-induced seizures in mouse at 1 to 10 mg/kg, ip incubated for 30 mins prior to PTZ challenge measured after 30 mins in presence of benzodiazepine receptor antagonist flumazenil. The data set is classed as functional, organism-based.
For data set [7], the system named is Mus musculus. Briefly: Potency index, ratio of phenobarbital ED50 to compound ED50 for protection against maximal electroshock-induced seizures in ip dosed mouse. The data set is classed as functional.

Consider `COc1ccc(-c2noc(Cn3c4ccccc4c(=O)c4cc(Cl)ccc43)n2)cc1`, for which the ED50 in the data set with Mus musculus [1] worked out at 2.08 mg/kg; in the data set on Mus musculus [2] it was 3.71 mg/kg. For the same compound, in [3], the TD50 at 1 min came to 438 mg/kg. Also, the selectivity ratio in [4] stood at 211; in data set [5] it was 118. Moreover, the IC50 with MCF7, with T47D and in the data set with MDA-MB-231 was above 50 µM each time. Moreover, the result in the data set on Mus musculus [6] was inactive.
Turning to `O=c1c2ccccc2n(Cc2nc(-c3ccc(Cl)cc3)no2)c2ccc(Br)cc12`, the “Ratio ED50” value with Mus musculus [7] was 7. Moreover, the ED50 in the data set with Mus musculus [1] was determined as 7.57 mg/kg; in the data set on Mus musculus [2], 2.87 mg/kg. The TD50 at 1 min in data set [3] was determined as 512 mg/kg. Moreover, the figures for the selectivity ratio in [4] and in [5] were 67.6 and 178, respectively. For the same compound, the IC50 with MCF7, with T47D and in the data set with MDA-MB-231 was above 50 µM in each case.
As for `COc1ccc(-c2noc(Cn3c4ccccc4c(=O)c4cc(Br)ccc43)n2)cc1`, the 50% effective dose (ED50) in the data set on Mus musculus [1] came to 6.21 mg/kg; in the data set on Mus musculus [2], 8.71 mg/kg. Also, the TD50 at 1 min in data set [3] was determined as 471 mg/kg. In addition, the selectivity ratio was found to be 75.8 in data set [4] and 54.1 in data set [5]. For the same compound, the concentration for half-maximal inhibition (IC50) in the data set with MCF7, with T47D and with MDA-MB-231 was above 50 µM throughout.
As for `COc1ccc(-c2noc(Cn3c4ccccc4c(=O)c4cc(OC)ccc43)n2)cc1`, the “Ratio ED50” value in the data set with Mus musculus [7] is recorded as 7. Also, the figures for the ED50 with Mus musculus [1] and in the data set with Mus musculus [2] were 2.12 mg/kg and 2.42 mg/kg, respectively. Further, the TD50 at 1 min in data set [3] came to 462 mg/kg. In addition, the selectivity ratio is 217 in [4] and 191 in data set [5]. The IC50 in the data set on MCF7, in the data set on T47D and with MDA-MB-231 was above 50 µM each time.
As to `Cc1ccc2c(c1)c(=O)c1ccccc1n2Cc1nc(-c2ccc(Cl)cc2)no1`, the ED50 in the data set with Mus musculus [1] was 15.2 mg/kg; in the data set with Mus musculus [2], 6.53 mg/kg. Further, the TD50 at 1 min in [3] turned out to be 475 mg/kg. Besides, the figures for the selectivity ratio in [4] and in data set [5] were 31.3 and 72.7, respectively. In addition, the IC50 in the data set on MCF7, in the data set with T47D and with MDA-MB-231 was above 50 µM throughout.
Regarding `COc1cc([C@@H]2c3cc4c(cc3[C@@H](O[C@@H]3O[C@@H]5CO[C@@H](C)O[C@H]5[C@H](O)[C@H]3O)[C@H]3COC(=O)[C@H]23)OCO4)cc(OC)c1O` [ETOPOSIDE], the half-inhibitory concentration (IC50) in the data set on T47D was determined as 11.8 µM; with MDA-MB-231, 15.7 µM.
For `CCc1ccc2c(c1)c(=O)c1ccccc1n2Cc1nc(-c2ccc(C)cc2)no1`, the ED50 in the data set with Mus musculus [1] was found to be 18.9 mg/kg; with Mus musculus [2], 8.31 mg/kg. The TD50 at 1 min in [3] amounted to 496 mg/kg. The selectivity ratio was 26.1 in data set [4] and 59.6 in data set [5]. Further, the half-inhibitory concentration (IC50) with MCF7, in the data set on T47D and with MDA-MB-231 was above 50 µM in each case.
As for `Cc1ccc(-c2noc(Cn3c4ccccc4c(=O)c4cc(Br)ccc43)n2)cc1`, the ED50 in the data set with Mus musculus [1] is above 50 mg/kg; in the data set on Mus musculus [2], 5.12 mg/kg. Further, the TD50 at 1 min in data set [3] is 594 mg/kg. The selectivity ratio is below 11.9 in [4] and 116 in data set [5]. Further, the IC50 in the data set with MCF7, in the data set with T47D and in the data set on MDA-MB-231 was above 50 µM throughout.
In the case of `COc1ccc2c(c1)c(=O)c1ccccc1n2Cc1nc(-c2ccc(C)cc2)no1`, the figures for the ED50 in the data set on Mus musculus [1] and in the data set with Mus musculus [2] were 6.32 mg/kg and 3.25 mg/kg, respectively. Besides, the TD50 at 1 min in data set [3] amounted to 522 mg/kg. Moreover, the figures for the selectivity ratio in data set [4] and in data set [5] were 82.4 and 160, respectively. For the same compound, the IC50 in the data set with MCF7, in the data set with T47D and with MDA-MB-231 was above 50 µM each time.
For `COc1ccc2c(c1)c(=O)c1ccccc1n2Cc1nc(-c2ccc(Cl)cc2)no1`, the ED50 in the data set with Mus musculus [1] stood at 5.22 mg/kg; in the data set with Mus musculus [2], 3.68 mg/kg. The TD50 at 1 min in data set [3] amounted to 553 mg/kg. The selectivity ratio turned out to be 106 in data set [4] and 150 in data set [5]. Further, the half-maximal inhibitory concentration (IC50) in the data set on MCF7, with T47D and with MDA-MB-231 was above 50 µM throughout.
For the compound `CN1C(=O)CN=C(c2ccccc2)c2cc(Cl)ccc21` [DIAZEPAM], the ED50 with Mus musculus [1] came out at 0.68 mg/kg; in the data set on Mus musculus [2], 0.98 mg/kg.
For `Cc1ccc(-c2noc(Cn3c4ccccc4c(=O)c4ccccc43)n2)cc1`, the “Ratio ED50” value with Mus musculus [7] came to 7. Moreover, the 50% effective dose (ED50) in the data set with Mus musculus [1] is 6.37 mg/kg; with Mus musculus [2], 2.52 mg/kg. The TD50 at 1 min in data set [3] was 538 mg/kg. Further, the selectivity ratio in [4] worked out at 84.5; in data set [5], 214. Further, the half-inhibitory concentration (IC50) in the data set with MCF7, with T47D and in the data set with MDA-MB-231 was above 50 µM in each case.
As to `O=c1c2ccccc2n(Cc2nc(-c3ccc(Cl)cc3)no2)c2ccc(Cl)cc12`, in the data set on Mus musculus [7], the “Ratio ED50” value is given as 7. Besides, the ED50 turned out to be 4.16 mg/kg in the data set on Mus musculus [1] and 2.64 mg/kg in the data set on Mus musculus [2]. Further, the TD50 at 1 min in data set [3] amounted to 454 mg/kg. The selectivity ratio came to 109 in data set [4] and 172 in [5]. Also, the concentration for half-maximal inhibition (IC50) in the data set on MCF7, in the data set with T47D and with MDA-MB-231 was above 50 µM each time.
Take `O=c1c2ccccc2n(Cc2nc(-c3ccc(Cl)cc3)no2)c2ccccc12`: the figures for the ED50 with Mus musculus [1] and with Mus musculus [2] were 5.78 mg/kg and 3.57 mg/kg, respectively. Also, in data set [3], the TD50 at 1 min worked out at 528 mg/kg. The selectivity ratio turned out to be 91.3 in data set [4] and 148 in [5]. For the same compound, the IC50 in the data set with MCF7, in the data set with T47D and in the data set on MDA-MB-231 was above 50 µM each time.
On to `Cc1ccc(-c2noc(Cn3c4ccccc4c(=O)c4cc(C)ccc43)n2)cc1`, for which the “Ratio ED50” value in the data set with Mus musculus [7] stood at 7. For the same compound, the ED50 was above 50 mg/kg in the data set on Mus musculus [1] and 2.77 mg/kg in the data set on Mus musculus [2]. In addition, the TD50 at 1 min in data set [3] is 542 mg/kg. For the same compound, the results for the selectivity ratio in [4] and in data set [5] were below 10.8 and 196, respectively. For the same compound, the IC50 in the data set with MCF7, in the data set with T47D and in the data set with MDA-MB-231 was above 50 µM each time.
`CCC1(c2ccccc2)C(=O)NC(=O)NC1=O` [PHENOBARBITAL]: the 50% effective dose (ED50) is 12.4 mg/kg in the data set on Mus musculus [1] and 20.6 mg/kg with Mus musculus [2]. Moreover, the TD50 at 1 min in data set [3] was 68.9 mg/kg. Besides, the selectivity ratio came out at 5.5 in data set [4] and 3.3 in data set [5].
Regarding `Cc1ccc(-c2noc(Cn3c4ccccc4c(=O)c4cc(Cl)ccc43)n2)cc1`, the “Ratio ED50” value with Mus musculus [7] is given as 7. Also, the 50% effective dose (ED50) was 6.25 mg/kg in the data set on Mus musculus [1] and 2.24 mg/kg in the data set with Mus musculus [2]. Also, the TD50 at 1 min in [3] amounted to 483 mg/kg. Further, the values for the selectivity ratio in data set [4] and in data set [5] were 77.3 and 216, respectively. The half-maximal inhibitory concentration (IC50) in the data set with MCF7, with T47D and with MDA-MB-231 was above 50 µM throughout.
